From patent US8648092B2, “Imidazo[1,2-a]pyridine derivatives: preparation and pharmaceutical applications” (MEI Pharma, priority 2005, dated 2014)

Test system: Colo205 cells
Test: Cell-based proliferation assay for determination of GI50 values (CyQUANT)
Set-up: species or system human
Conditions: Homo sapiens
Procedure: Cell-Based Proliferation Assay for Determination of GI50 Values
Human cancer cell lines (e.g. Colo205) were obtained from ATCC. Colo205 cells were cultivated in RPMI 1640 containing 2 mM L-Glutamine, 5% FBS, 1.0 mM Na Pyruvate. Colo205 cells were seeded in 96-wells plate at 5000 cells per well. The plates were incubated at 37° C., 5% CO2, for 24 h. Cells were treated with compounds at various concentrations for 96 h. Cell growth was then monitored using CyQUANT® cell proliferation assay (Invitrogen Pte Ltd). Dose response curves were plotted to determine GI50 values for the compounds using XL-fit (ID Business Solution, Emeryville, Calif.). GI50 is defined as the concentration of compound required for 50% inhibition of cell growth.
The cellular or growth inhibition activity results of representative compounds are shown in Table 4 below (unit in the table is micromolar).

SMILES | GI50 (COLO 205, 96 h treatment) [nM] | GI50 (COLO 205, 96 h, 96 h treatment) [nM]
CCN(CCC(C)(C)C)Cc1c(CC(C)C)nc2cc(/C=C/C(=O)NO)ccn12 [Compound 136, 3-(3-{[(3,3-Dimethyl-butyl)-ethyl-amino]-methyl}-2-isobutyl-imidazo[1,2-a]pyridin-7-yl)-N-hydroxy-acrylamide] | 170 | –
CCC(CC)NCc1c(C(C)(C)C)nc2cc(C=CC(=O)NO)ccn12 [Compound 68, 3-{2-tert-Butyl-3-[(1-ethyl-propylamino)-methyl]-imidazo[1,2-a]pyridin-7-yl}-N-hydroxy-acrylamide] | – | 1500
CCCCc1nc2cc(/C=C/C(=O)NO)ccn2c1CN(CC)CC(C)CCC (stereo not drawn) [Compound 113, 3-(2-Butyl-3-{[ethyl-(2-methyl-pentyl)-amino]-methyl}-imidazo[1,2-a]pyridin-7-yl)-N-hydroxy-acrylamide] | – | 370
CCCCN(CCCC)Cc1c(C)nc2cc(/C=C/C(=O)NO)ccn12 [Compound 81, 3-(3-Dibutylaminomethyl-2-methyl-imidazo[1,2-a]pyridin-7-yl)-N-hydroxy-acrylamide] | 800 | –
CCN(CCC(C)C)Cc1c(CC(C)C)nc2cc(/C=C/C(=O)NO)ccn12 [Compound 135, 3-(3-{[Ethyl-(3-methyl-butyl)-amino]-methyl}-2-isobutyl-imidazo[1,2-a]pyridin-7-yl)-N-hydroxy-acrylamide] | 150 | –
CC(C)(C)Nc1c(C(=O)O)nc2ccc(/C=C/C(=O)NO)cn12 [Compound 12, 3-tert-Butylamino-6-(2-hydroxycarbamoyl-vinyl)-imidazo[1,2-a]pyridine-2-carboxylic acid] | 20000 | –
CCC(C)CN(CC)Cc1c(C(C)(C)C)nc2cc(/C=C/C(=O)NO)ccn12 (stereo not drawn) [Compound 88, 3-(2-tert-Butyl-3-{[ethyl-(2-methyl-butyl)-amino]-methyl}-imidazo[1,2-a]pyridin-7-yl)-N-hydroxy-acrylamide] | 2200 | –
CCN(CCC(C)C)Cc1c(CCC(C)C)nc2cc(/C=C/C(=O)NO)ccn12 [Compound 142, 3-[3-{[Ethyl-(3-methyl-butyl)-amino]-methyl}-2-(3-methyl-butyl)-imidazo[1,2-a]pyridin-7-yl]-N-hydroxy-acrylamide] | 130 | –
CCN(CCC(C)C)Cc1c(C)nc2cc(/C=C/C(=O)NO)ccn12 [Compound 124, 3-(3-{[Ethyl-(3-methyl-butyl)-amino]-methyl}-2-methyl-imidazo[1,2a]pyridin-7-yl)-N-hydroxy-acrylamide] | 110 | –
CCCCCCCN(CC)Cc1c(C(C)(C)C)nc2cc(/C=C/C(=O)NO)ccn12 [Compound 94, 3-{2-tert-Butyl-3-[(ethyl-heptyl-amino)-methyl]-imidazo[1,2-a]pyridin-7-yl}-N-hydroxy-acrylamide] | – | 2700
CCCCCCc1nc2cc(/C=C/C(=O)NO)ccn2c1NCCC(=O)N(C)CC#N [Compound 31, 3-{3-[2-(Cyanomethyl-methyl-carbamoyl)-ethylamino]-2-hexyl-imidazo[1,2-a]pyridin-7-yl}-N-hydroxy-acrylamide] | 1900 | –
COCCNc1c(CCC(=O)O)nc2ccc(/C=C/C(=O)NO)cn12 [Compound 10, 3-[6-(2-Hydroxycarbamoyl-vinyl)-3-(2-methoxy-ethylamino)-imidazo[1,2-a]pyridin-2-yl]-propionic acid] | 39000 | –
